Two compounds from patent US11427586B2, “1,2,4-oxadiazole derivatives as liver X receptor agonists” (NOVARTIS AG, priority 2019, dated 2022) can be followed below.

Read-outs that look alike come from different tables or passages of the source.

Assay [1] relates to SCD1. In words: Measurement of SCD1 expression in SZ95-SCD1-HiBit cells (HiBiT assay). The format is cell-based. Conditions: Homo sapiens, 48 h; for EC50: SCD1 protein production, luminescence, initial dilution 1:3 in DMSO, read-out: HiBit EC50. (In general: With HiBiT, luminescence reflects the tagged protein that the partner subunit can reach.)
Assay [2] concerns SZ95 sebocytes. The assay can be described thus: Sentinel Lipid Assay (SLA), desaturation index in SZ95 sebocytes. Conditions: Homo sapiens, 72 h; for EC50: desaturation index, lowest dose used 4.6 nM, read-out: SLA EC50. The format is cell-based. The gist of the method:
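SZ95 human sebocytes on fibronectin-coated plates, dosed 72 h at 37 °C with 1:3 dilutions from 10 μM; lipids extracted with deuterated triglyceride internal standards and quantified by LC-MS/MS (MRM) as 11 sentinel lipids. Desaturation index from elastic-net coefficients, normalized to DMSO; Amax relative to a reference LXR agonist.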

In assay [3] the test system is naive Sprague Dawley rats. The assay can be described thus: In vivo measurement of lowered meibum melting temperature. Further details: species or system rat. Conditions: for Change of Tm: meibum melting point versus vehicle, 1% suspension eye drops twice a day for fourteen days, rats; for meibum melting temperature (in words): rat eyes, concentration of 1%; for Mean ± SEM of Compound (meibum melting point): rat meibum, DSC peak temperature, 1% suspension as eye drops twice a day for fourteen days, in °C. The method, then:
In Vivo Measurement of Lowered Meibum Melting Temperature
For compounds 8 and 57, the lowering of rat meibum melting temperature was measured in naive Sprague Dawley rats. The test animals were administered either vehicle, or a suspension of 1% of compound 8 or 1% of compound 57, as eye drops twice a day for fourteen days. The rat meibum was collected after administration of the compounds and analyzed by differential scanning calorimetry to measure the melting point. The lowering of meibum melting point in rats administered compound 8 or compound 57 was compared to the vehicle.
Melting properties of meibum were obtained using differential scanning calorimetry thermograms, recorded on a TA Discovery Q5000 (ThermoAnalytical). Samples were sealed in standard 40 μl aluminum pans and subjected to a heat-cool-heat cycle with melting temperatures being recorded on the second heating ramp. The samples were first heated to 150° C. at 30K/min then cooled −30° C. at 30K/min. Next, the sample was heated to 75° C. with an underlying heating rate of 2K/min, a period of modulation of 60 seconds and a temperature amplitude of modulation of 1° C. Dry N2 gas, at a flow rate of 50 mL/min was used to purge the DSC equipment during the measurement. Onset of melting and peak temperatures were recorded with peak temperature quoted as the melting point.
Results from the assay are shown Table 3 and in FIG. 4. Results were analyzed using an unpaired t test with Welch's correction.

[4] abbreviates: normalized Amax based on the reference compound Amax of 100%, read-out: HiBit Normalized Amax.
Where [5] appears, read: SZ95-SCD1-HiBit cells, compared to reference compound, read-out: HiBit Amax.
Where [6] appears, read: normalized Amax based on the reference compound Amax of 100%, read-out: SLA Normalized Amax.
Where [7] appears, read: SZ95 cells, compared to reference compound, read-out: SLA Amax.

In general, EC50 refers to the concentration that produces a half-maximal response. In the case of `CC(C)CS(=O)(=O)c1ccccc1Oc1ccc(-c2noc(CN3C(=O)N(CCN4CCOCC4)C4(CCN(C5CCC5)CC4)C3=O)n2)cc1C(F)(F)F` [Compound 8, 8-cyclobutyl-3-((3-(4-(2-(isobutylsulfonyl)phenoxy)-3-(trifluoromethyl)phenyl)-1,2,4-oxadiazol-5-yl)methyl)-1-(2-morpholinoethyl)-1,3,8-triazaspiro[4.5]decane-2,4-dione], the Emax amounted to 120% in assay [1] (setting [4]), 114% in assay [1] (setting [5]), 230% in assay [2] (setting [6]) and 221% in assay [2] (setting [7]). Also, the concentration for a half-maximal effect (EC50) in assay [1] (SZ95-SCD1-HiBit cells) is 0.111 nM; in assay [2] (SZ95 cells), at most 4.6 nM. Besides, the “Change of Tm” value in assay [3] was −1.977 ± 0.3731. The “meibum melting temperature (in words)” value in assay [3] is reported as “decrease”. Also, in assay [3], the “Mean ± SEM of Compound (meibum melting point)” value came to 28.29 ± 0.2920.

Regarding `CC(C)CS(=O)(=O)c1ccccc1Oc1ccc(-c2noc(CN3C(=O)N(CCN4CCOCC4)C(C)(C)C3=O)n2)cc1C(F)(F)F` [Compound 57, 3-((3-(4-(2-(isobutylsulfonyl)phenoxy)-3-(trifluoromethyl)phenyl)-1,2,4-oxadiazol-5-yl)methyl)-5,5-dimethyl-1-(2-morpholinoethyl)imidazolidine-2,4-dione], the Emax in assay [1] (setting [4]) is 88.4%; in assay [1] (setting [5]), 84.1%; in assay [2] (setting [6]), 176%; in assay [2] (setting [7]) it was 169%. The EC50 was 0.217 nM in assay [1] (SZ95-SCD1-HiBit cells) and at most 4.6 nM in assay [2] (SZ95 cells). Moreover, the “Change of Tm” value in assay [3] is −2.181 ± 0.3731. In assay [3], the “meibum melting temperature (in words)” value is “decrease”. In addition, in assay [3], the “Mean ± SEM of Compound (meibum melting point)” value is on record as 28.08 ± 0.2945.
